Results: PMC6650409, “Modeling the binding of diverse ligands within the Ah receptor ligand binding domain” (Scientific Reports, 2019)
Changes are numbered by the printed parent chain. Where two headings read alike, the source gives them in different places.

Experiments:
[1] = molecular target: T1, P291L AhR (Mus musculus, UniProt P30561, P291L); experiment: [3H]TCDD competitive ligand binding, P291L mutant AhR; conditions: for change of relative binding affinity versus wild-type AhR: P291L substitution, in words
T1 construct: made in house; host or cells: in vitro, Promega TNT Quick rabbit reticulocyte lysate
T1 sequence (P30561 10-848 P291L): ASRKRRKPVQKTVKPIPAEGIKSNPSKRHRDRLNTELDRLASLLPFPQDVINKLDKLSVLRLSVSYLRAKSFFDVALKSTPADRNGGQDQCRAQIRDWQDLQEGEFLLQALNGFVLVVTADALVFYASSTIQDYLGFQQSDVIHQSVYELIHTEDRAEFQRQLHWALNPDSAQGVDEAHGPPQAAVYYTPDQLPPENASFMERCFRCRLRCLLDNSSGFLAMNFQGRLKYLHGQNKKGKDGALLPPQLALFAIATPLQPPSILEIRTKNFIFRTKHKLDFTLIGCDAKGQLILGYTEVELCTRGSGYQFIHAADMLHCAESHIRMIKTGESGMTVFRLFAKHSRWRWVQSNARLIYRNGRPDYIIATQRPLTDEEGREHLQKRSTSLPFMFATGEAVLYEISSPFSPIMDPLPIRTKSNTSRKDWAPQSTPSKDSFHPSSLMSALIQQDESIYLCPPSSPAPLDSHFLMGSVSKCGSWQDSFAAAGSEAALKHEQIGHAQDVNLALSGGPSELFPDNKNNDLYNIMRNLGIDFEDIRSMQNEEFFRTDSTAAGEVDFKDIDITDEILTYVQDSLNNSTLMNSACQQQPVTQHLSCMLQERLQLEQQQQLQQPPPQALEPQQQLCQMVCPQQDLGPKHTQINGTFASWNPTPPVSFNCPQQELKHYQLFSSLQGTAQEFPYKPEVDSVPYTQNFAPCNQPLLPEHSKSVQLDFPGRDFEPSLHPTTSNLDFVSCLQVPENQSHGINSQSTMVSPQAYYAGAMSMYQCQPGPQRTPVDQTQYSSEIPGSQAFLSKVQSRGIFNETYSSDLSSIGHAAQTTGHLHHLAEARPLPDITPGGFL
Method: The mouse AhR (mAhR) and ARNT (mARNT) expression plasmids, mβAhR/pcDNA3 and mβArnt/pcDNA3, have been previously described. Point mutations of mβAhR/pcDNA3 were carried out using the QuikChange Lightning Mutagenesis Kit (Agilent Technologies) and all constructs were verified by sequencing.
[^3H]TCDD specific binding to wild-type or mutant mAhRs synthesized in vitro using the Promega TNT Quick coupled transcription/translation rabbit reticulocyte lysate kit (Madison, WI) was carried out as previously described. [^3H]TCDD specific binding was determined by subtracting the amount of [^3H]TCDD bound to unprogrammed lysate (nonspecific binding) from the total amount of [^3H]TCDD binding to lysate containing in vitro expressed AhR. The amount of [^3H]TCDD specific binding remaining in the presence of the indicated competitor chemical was expressed as a percent of the total [^3H]TCDD specific binding. The relative binding affinity (IC50) of each chemical was determined from concentration-dependent competitive inhibition curves obtained using [^3H]TCDD and increasing concentrations of each test chemical and the mean IC50 value was determined using three-parameter non-linear regression.

[2] = molecular target: T2, C327A mutant AhR (Mus musculus, UniProt P30561, C327A); parameters: method as in PMID 21981577; conditions: C327A mutation; cited from earlier work
T2 construct: made in house; host or cells: in vitro, Promega TNT Quick rabbit reticulocyte lysate
T2 sequence (P30561 10-848 C327A): T1 sequence (P30561 10-848 P291L) with L282P, C318A

[3] = Table S6, AhR mutant P291L, read-out: IC50

SMILES	change of relative binding affinity versus wild-type AhR [1]	IC50 [1, 3] [nM]	TCDD binding activity [2]	IC50 ([1]; P291L AhR, read-out: relative affinity (IC50)) [nM]
c1ccc2c(c1)cc1ccc3cccc4ccc2c1c34 [BaP, Benzo(a)pyrene]	not statistically significant	604		
Clc1cc2c(cc1Cl)Oc1cc(Cl)c(Cl)cc1O2 [TCDD, 2,3,7,8-tetrachlorodibenzo-p-dioxin]			only partially affected	
Clc1cc2oc3cc(Cl)c(Cl)cc3c2cc1Cl [TCDF, 2,3,7,8-tetrachlorodibenzofuran]	dramatically enhanced	0.0435		0.04
